Assay results published in patent US11566007B2, “Ras inhibitors” (Revolution Medicines, Inc., priority 2019, dated 2023).
Values joined by “and” are separate entries in the source; they are usually repeats but may differ in a detail not shown here. Equal entries are not always repeated.

Assays:
Type in all cases: biochemical
[1] = molecular target: KRAS WT (Homo sapiens (Human), UniProt P01116+P62937); test: Ras-Raf (BRAF RBD) disruption / FRET / MOA assay, KRAS WT; details: read-out: IC50* KRAS WT FRET data
How it was run: (§1)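 TR-FRET read-out: a drop in ratio relative to DMSO wells marks disruption of the Ras:RAF complex, reported as IC50. Compounds (3-fold series, 10 points, top 30 μM final) incubated 3 h at 25° C before Eu-anti-His 10 nM and APC-anti-GST 50 nM, 1.5 h more.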

[2] = molecular target: NRAS Q61R (Homo sapiens (Human), UniProt P01111+P62937, Q61R); test: Ras-Raf (BRAF RBD) disruption / FRET / MOA assay, NRAS Q61R; details: NRAS Q61R; Ras-Raf disruption/FRET/MOA assay; read-out: IC50* NRAS Q61R FRET data
How it was run: (§2)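 Compounds were tested as a 10-point 3-fold dilution series from 30 μM final for their ability to drive ternary complex formation between nucleotide-loaded Ras and cyclophilin A, displacing the BRAF RBD. After 3 h at 25° C., anti-His Eu-W1024 (10 nM) and anti-GST allophycocyanin (50 nM) were added for 1.5 h. A TR-FRET ratio decrease versus DMSO gave IC50.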

[3] = molecular target: KRAS G12S (Homo sapiens (Human), UniProt P01116+P62937, G12S); test: Ras-Raf (BRAF RBD) disruption / FRET / MOA assay, KRAS G12S; details: Ras-Raf disruption/FRET/MOA assay; class symbols; read-out: KRAS G12S FRET data IC50
How it was run: as §1

[4] = molecular target: KRAS G12V (Homo sapiens (Human), UniProt P01116+P62937, G12V); test: Ras-Raf (BRAF RBD) disruption / FRET / MOA assay, KRAS G12V; details: read-out: IC50* KRAS G12V FRET data
How it was run: as §1

[5] = molecular target: KRAS G13D (Homo sapiens (Human), UniProt P01116+P62937, G13D); test: Ras-Raf (BRAF RBD) disruption / FRET / MOA assay, KRAS G13D; details: read-out: IC50* KRAS G13D FRET data
How it was run: as §1

[6] = molecular target: NRAS Q61K (Homo sapiens (Human), UniProt P01111+P62937, Q61K); test: Ras-Raf (BRAF RBD) disruption / FRET / MOA assay, NRAS Q61K; details: NRAS Q61K; Ras-Raf disruption/FRET/MOA assay; read-out: IC50* NRAS Q61K FRET data
How it was run: as §2

[7] = molecular target: NRAS G12C (Homo sapiens (Human), UniProt P01111+P62937, G12C); test: Ras-Raf (BRAF RBD) disruption / FRET / MOA assay, NRAS G12C; details: read-out: IC50* NRAS G12C FRET data
How it was run: as §1

[8] = molecular target: NRAS WT (Homo sapiens (Human), UniProt P01111+P62937); test: Ras-Raf (BRAF RBD) disruption / FRET / MOA assay, NRAS WT; details: read-out: IC50* NRAS WT FRET data
How it was run: as §2

[9] = molecular target: K-Ras G13C (Homo sapiens (Human), UniProt P01116+P62937, G13C); test: Ras-Raf (BRAF RBD) disruption / FRET / MOA assay, KRAS G13C; details: KRAS G13C; Ras-Raf disruption/FRET/MOA assay; read-out: IC50* KRAS G13C FRET data
How it was run: as §1

[10] = molecular target: K-Ras G12C (Homo sapiens (Human), UniProt P01116+P62937, G12C); test: Ras-Raf (BRAF RBD) disruption / FRET / MOA assay, KRAS G12C; details: KRAS G12C; Ras-Raf disruption/FRET/MOA assay; read-out: IC50* KRAS G12C FRET data
How it was run: as §1

K-Ras G12C, sequence (P01116-2 other isoform, or with tags, fused parts or gaps G12C): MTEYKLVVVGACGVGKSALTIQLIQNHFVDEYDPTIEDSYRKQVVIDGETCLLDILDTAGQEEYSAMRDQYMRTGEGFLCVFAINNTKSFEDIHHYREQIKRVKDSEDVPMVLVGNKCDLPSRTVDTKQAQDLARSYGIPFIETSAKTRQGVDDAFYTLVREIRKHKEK
K-Ras G12C, sequence (P62937 whole entry): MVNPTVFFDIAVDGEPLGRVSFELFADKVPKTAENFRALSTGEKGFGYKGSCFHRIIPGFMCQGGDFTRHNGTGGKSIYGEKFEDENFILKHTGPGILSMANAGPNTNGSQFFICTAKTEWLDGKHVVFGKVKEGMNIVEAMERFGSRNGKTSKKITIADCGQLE
NRAS Q61K, sequence (P01111 whole entry Q61K): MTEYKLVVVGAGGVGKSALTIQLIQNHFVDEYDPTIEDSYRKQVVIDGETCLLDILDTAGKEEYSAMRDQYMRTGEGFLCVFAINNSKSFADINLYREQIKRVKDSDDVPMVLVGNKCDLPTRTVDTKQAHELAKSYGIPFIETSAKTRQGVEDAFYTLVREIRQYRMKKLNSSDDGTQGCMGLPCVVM
NRAS Q61K, sequence (P62937 whole entry): as the sequence (P62937 whole entry) above
K-Ras G13C, sequence (P01116-2 other isoform, or with tags, fused parts or gaps G13C): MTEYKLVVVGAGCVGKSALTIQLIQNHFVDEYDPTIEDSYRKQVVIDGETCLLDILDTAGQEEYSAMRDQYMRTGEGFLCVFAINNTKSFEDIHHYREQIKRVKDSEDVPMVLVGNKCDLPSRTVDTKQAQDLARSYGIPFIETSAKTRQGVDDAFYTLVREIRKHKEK
K-Ras G13C, sequence (P62937 whole entry): as the sequence (P62937 whole entry) above
NRAS G12C, sequence (P01111 whole entry G12C): as the sequence (P01111 whole entry Q61K) above, with G12C, K61Q counted along it
NRAS G12C, sequence (P62937 whole entry): as the sequence (P62937 whole entry) above
KRAS G12S, sequence (P01116-2 other isoform, or with tags, fused parts or gaps G12S): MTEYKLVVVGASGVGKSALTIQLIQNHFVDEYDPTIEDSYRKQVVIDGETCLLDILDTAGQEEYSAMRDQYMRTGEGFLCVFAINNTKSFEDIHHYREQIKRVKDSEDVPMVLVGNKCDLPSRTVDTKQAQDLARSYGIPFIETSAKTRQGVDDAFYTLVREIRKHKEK
KRAS G12S, sequence (P62937 whole entry): as the sequence (P62937 whole entry) above
KRAS G12V, sequence (P01116-2 other isoform, or with tags, fused parts or gaps G12V): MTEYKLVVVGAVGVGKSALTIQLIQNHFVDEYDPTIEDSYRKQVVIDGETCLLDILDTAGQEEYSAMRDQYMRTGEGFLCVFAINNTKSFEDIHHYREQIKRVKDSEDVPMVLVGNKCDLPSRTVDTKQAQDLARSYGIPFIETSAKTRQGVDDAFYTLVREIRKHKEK
KRAS G12V, sequence (P62937 whole entry): as the sequence (P62937 whole entry) above
KRAS G13D, sequence (P01116-2 other isoform, or with tags, fused parts or gaps G13D): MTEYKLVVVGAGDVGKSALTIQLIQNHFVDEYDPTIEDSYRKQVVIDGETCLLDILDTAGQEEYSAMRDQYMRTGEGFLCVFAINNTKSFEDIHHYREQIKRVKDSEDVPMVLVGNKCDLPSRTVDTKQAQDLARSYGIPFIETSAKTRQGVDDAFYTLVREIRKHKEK
KRAS G13D, sequence (P62937 whole entry): as the sequence (P62937 whole entry) above
NRAS WT, sequence (P01111 whole entry): as the sequence (P01111 whole entry Q61K) above, with K61Q counted along it
NRAS WT, sequence (P62937 whole entry): as the sequence (P62937 whole entry) above
KRAS WT, sequence (P01116-2 other isoform, or with tags, fused parts or gaps): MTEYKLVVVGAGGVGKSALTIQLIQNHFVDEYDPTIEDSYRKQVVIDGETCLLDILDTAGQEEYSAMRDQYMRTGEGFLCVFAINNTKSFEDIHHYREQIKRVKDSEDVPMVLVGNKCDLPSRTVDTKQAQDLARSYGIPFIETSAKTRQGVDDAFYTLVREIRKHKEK
KRAS WT, sequence (P62937 whole entry): as the sequence (P62937 whole entry) above
NRAS Q61R, sequence (P01111 whole entry Q61R): as the sequence (P01111 whole entry Q61K) above, with K61R counted along it
NRAS Q61R, sequence (P62937 whole entry): as the sequence (P62937 whole entry) above

Row | Compound | IC50 [1] | IC50 [2] [nM] | IC50 [3] | IC50 [4] | IC50 [5] | IC50 [6] [nM] | IC50 [7] | IC50 [8] [nM] | IC50 [9] | IC50 [10]
1 | C=CC(=O)N1CC[C@H](C(=O)N(C)[C@H](C(=O)N[C@H]2Cc3cc(O)cc(c3)-c3ccc4c(c3)c(c(-c3cc(C)ccc3[C@H](C)OC)n4CC)CC(C)(C)COC(=O)[C@@H]3CCCN(N3)C2=O)C(C)C)C1 (atropisomer, axis not shown) [Example A167] | 1000 to 10000 nM and 10 to 100 nM | 100 to 1000 | 1000 to 10000 nM and 10 to 100 nM | 1000 to 10000 nM and 10 to 100 nM | 100 to 1000 nM and > 10000 nM | 100 to 1000 | 100 to 1000 nM and < 10 nM | 10 to 100 | 10 to 100 nM and 1000 to 10000 nM | 100 to 1000 nM and < 10 nM
2 | CC#CC(=O)N1CCC(C(=O)N(C)[C@H](C(=O)N[C@H]2Cc3nc(cs3)-c3ccc4c(c3)c(c(-c3cccnc3[C@H](C)OC)n4CC)CC(C)(C)COC(=O)[C@@H]3CCCN(N3)C2=O)C(C)C)C1 (atropisomer, axis not shown) [Example A168] | 1000 to 10000 nM | 1000 to 10000 | 1000 to 10000 nM | 1000 to 10000 nM | > 10000 nM | 1000 to 10000 | 1000 to 10000 nM | 1000 to 10000 | 1000 to 10000 nM | 100 to 1000 nM
3 | C=CC(=O)N1CC[C@H](C(=O)N(C)[C@H](C(=O)N[C@H]2Cc3cccc(c3)-c3ccc4c(c3)c(c(-c3cccnc3[C@H](C)OC)n4CC(F)F)CC(C)(C)COC(=O)[C@@H]3CCCN(N3)C2=O)C(C)C)C1 (atropisomer, axis not shown) [Example A335] | 1000 to 10000 nM | 1000 to 10000 | 1000 to 10000 nM | 1000 to 10000 nM | 1000 to 10000 nM | 1000 to 10000 | 100 to 1000 nM | 1000 to 10000 | 1000 to 10000 nM | 100 to 1000 nM
4 | C=CC(=O)N1CC[C@H](C(=O)N(C)[C@H](C(=O)N[C@H]2Cc3cc(cc(C(F)F)c3)-c3ccc4c(c3)c(c(-c3cccnc3[C@H](C)OC)n4CC)CC(C)(C)COC(=O)[C@@H]3CCCN(N3)C2=O)C(C)C)C1 (atropisomer, axis not shown) [Example A341, (3S)-1-acryloyl-N-((2S)-1-(((6^3S,4S)-2^5-(difluoromethyl)-1^1-ethyl-1^2-(2-((S)-1-methoxyethyl)pyridin-3-yl)-10,10-dimethyl-5,7-dioxo-6^1,6^2,6^3,6^4,6^5,6^6-hexahydro-1^1H-8-oxa-1(5,3)-indola-6(1,3)-pyridazina-2(1,3)-benzenacycloundecaphane-4-yl)amino)-3-methyl-1-oxobutan-2-yl)-N-methylpyrrolidine-3-carboxamide] | 1000 to 10000 nM | 1000 to 10000 | 1000 to 10000 nM | 1000 to 10000 nM | 1000 to 10000 nM | 1000 to 10000 | 100 to 1000 nM | 1000 to 10000 | 100 to 1000 nM | 100 to 1000 nM
5 | C=CC(=O)N1CC(OC[C@H](C(=O)N[C@H]2Cc3cccc(c3)-c3ccc4c(c3)c(c(-c3cccnc3[C@H](C)OC)n4CC(F)(F)F)CC(C)(C)COC(=O)[C@@H]3CCCN(N3)C2=O)C(C)C)C1 (atropisomer, axis not shown) [Example A344] | 1000 to 10000 nM | 1000 to 10000 | 1000 to 10000 nM | 1000 to 10000 nM | 1000 to 10000 nM | 1000 to 10000 | 10 to 100 nM | 1000 to 10000 | 100 to 1000 nM | 10 to 100 nM
6 | C=CC(=O)N1CC(OC[C@H](C(=O)N[C@H]2Cc3cc(cc(C(F)F)c3)-c3ccc4c(c3)c(c(-c3cccnc3[C@H](C)OC)n4CC)CC(C)(C)COC(=O)[C@@H]3CCCN(N3)C2=O)C(C)C)C1 (atropisomer, axis not shown) [Example A345] | > 10000 nM | > 10000 | > 10000 nM | > 10000 nM | > 10000 nM | > 10000 | 1000 to 10000 nM | > 10000 | 1000 to 10000 nM | 1000 to 10000 nM
7 | C=CC(=O)N1CC2(COCCN2C(=O)N(C)[C@H](C(=O)N[C@H]2Cc3nc(cs3)-c3ccc4c(c3)c(c(-c3cccnc3[C@H](C)OC)n4CC)CC(C)(C)COC(=O)[C@@H]3CCCN(N3)C2=O)C(C)C)C1 (atropisomer, axis not shown) [Example A352] | 1000 to 10000 nM | 1000 to 10000 | > 10000 nM | > 10000 nM | > 10000 nM | 1000 to 10000 | 10 to 100 nM | 1000 to 10000 | > 10000 nM | 10 to 100 nM
8 | C=CC(=O)N1CC[C@@]2(C1)CN(C(=O)N(C)[C@H](C(=O)N[C@H]1Cc3nc(cs3)-c3ccc4c(c3)c(c(-c3cccnc3[C@H](C)OC)n4CC)CC(C)(C)COC(=O)[C@@H]3CCCN(N3)C1=O)C(C)C)CCO2 (atropisomer, axis not shown) [Example A353] | 100 to 1000 nM | 100 to 1000 | 100 to 1000 nM | 100 to 1000 nM | 100 to 1000 nM | 10 to 100 | 10 to 100 nM | 100 to 1000 | 100 to 1000 nM | 10 to 100 nM
9 | C=CC(=O)NC[C@H]1CCN1C(=O)N(C)[C@H](C(=O)N[C@H]1Cc2nc(cs2)-c2ccc3c(c2)c(c(-c2cccnc2[C@H](C)OC)n3CC)CC(C)(C)COC(=O)[C@@H]2CCCN(N2)C1=O)C(C)C (atropisomer, axis not shown) [Example A356] | 100 to 1000 nM | 100 to 1000 | 1000 to 10000 nM | 1000 to 10000 nM | 1000 to 10000 nM | 100 to 1000 | 100 to 1000 nM | 100 to 1000 | 100 to 1000 nM | 100 to 1000 nM
10 | C=C(C)C(=O)N1CC(N(C)C(=O)N(C)[C@H](C(=O)N[C@H]2Cc3nc(cs3)-c3ccc4c(c3)c(c(-c3cccnc3[C@H](C)OC)n4CC)CC(C)(C)COC(=O)[C@@H]3CCCN(N3)C2=O)C(C)C)C1 (atropisomer, axis not shown) [Example A360] | 100 to 1000 nM | 100 to 1000 | 100 to 1000 nM | 100 to 1000 nM | 1000 to 10000 nM | 100 to 1000 | 100 to 1000 nM | 100 to 1000 | 100 to 1000 nM | 100 to 1000 nM
11 | CCn1c(-c2cccnc2[C@H](C)OC)c2c3cc(ccc31)-c1csc(n1)C[C@H](NC(=O)[C@H](C(C)C)N(C)C(=O)N(C)C1CN(C(=O)/C=C/CN(C)C)C1)C(=O)N1CCC[C@H](N1)C(=O)OCC(C)(C)C2 (atropisomer, axis not shown) [Example A361] | 100 to 1000 nM | 100 to 1000 | 100 to 1000 nM | 100 to 1000 nM | 100 to 1000 nM | 100 to 1000 | 10 to 100 nM | 100 to 1000 | 100 to 1000 nM | 10 to 100 nM
